The assay relates to broadleaf signalgrass. As to the kind of experiment: Foliar spray herbicide effect test in greenhouse pots (Test Example 1). Format: in vivo, Brachiaria platyphylla. To be noted: evaluated 5 days after treatment, level 0-10. The protocol: Evaluation of phytotoxicity against a crop was shown by “no” when almost no phytotoxicity was observed, “low” when a low level phytotoxicity was observed, “medium” when a medium level phytotoxicity was observed and “high” when a high level phytotoxicity was observed.
A plastic pot of 11 cm in diameter and 8 cm in depth was filled with field soil. A seed of broadleaf signalgrass was sown and grown in a greenhouse for 28 days.
An emulsion of Compound A-1 was prepared by sufficiently mixing […] of Compound A-1, 6 parts of Sorpol 3005× (surfactant, produced by Toho Chemical) and 89 parts of xylene.
Each of • single use of an emulsion of Compound A-1, • single use of a formulation of Flumioxazin (commercial name: Pledge, produced by Sumitomo Chemical, containing 50% of Flumioxazin), • single use of a formulation of Sulfentrazone (commercial name: Authority, produced by Du Pont, containing 75% of Sulfentrazone), • a mixed composition of an emulsion of Compound A-1 and a formulation of Flumioxazin, and • a mixed composition of an emulsion of Compound A-1 and a solution of Sulfentrazone • were diluted with water containing 1% Agri-dex (produced by Helena). […]
After the treatment, they were raised in a greenhouse for 5 days and the effect against weeds was evaluated. In addition, after 14 days of the treatment, the phytotoxicity to soybean was evaluated.

As to `Cc1nn(-c2cc(NS(C)(=O)=O)c(Cl)cc2Cl)c(=O)n1C(F)F` [Sulfentrazone, N-[2,4-dichloro-5-[4-(difluoromethyl)-4,5-dihydro-3-methyl-5-oxo-1H-1,2,4-triazol-1-yl]phenyl]methanesulfonamide], the “Herbicide Effect Broad signalgrass” value by setting is: (200 g/ha active ingredient) 1; (1200 g/ha active ingredient) 3.

Values taken from US7407914B2, “Herbicide composition” (Sumitomo Chemical Company, Limited, priority 2001, dated 2008).
